Results on one compound are retold here after publication PMC3813382 (The Journal of General Physiology, 2013).

The assay addresses T1, Slo2.1 (Homo sapiens, UniProt Q6UVM3).
T1 sequence (Q6UVM3 1-1135): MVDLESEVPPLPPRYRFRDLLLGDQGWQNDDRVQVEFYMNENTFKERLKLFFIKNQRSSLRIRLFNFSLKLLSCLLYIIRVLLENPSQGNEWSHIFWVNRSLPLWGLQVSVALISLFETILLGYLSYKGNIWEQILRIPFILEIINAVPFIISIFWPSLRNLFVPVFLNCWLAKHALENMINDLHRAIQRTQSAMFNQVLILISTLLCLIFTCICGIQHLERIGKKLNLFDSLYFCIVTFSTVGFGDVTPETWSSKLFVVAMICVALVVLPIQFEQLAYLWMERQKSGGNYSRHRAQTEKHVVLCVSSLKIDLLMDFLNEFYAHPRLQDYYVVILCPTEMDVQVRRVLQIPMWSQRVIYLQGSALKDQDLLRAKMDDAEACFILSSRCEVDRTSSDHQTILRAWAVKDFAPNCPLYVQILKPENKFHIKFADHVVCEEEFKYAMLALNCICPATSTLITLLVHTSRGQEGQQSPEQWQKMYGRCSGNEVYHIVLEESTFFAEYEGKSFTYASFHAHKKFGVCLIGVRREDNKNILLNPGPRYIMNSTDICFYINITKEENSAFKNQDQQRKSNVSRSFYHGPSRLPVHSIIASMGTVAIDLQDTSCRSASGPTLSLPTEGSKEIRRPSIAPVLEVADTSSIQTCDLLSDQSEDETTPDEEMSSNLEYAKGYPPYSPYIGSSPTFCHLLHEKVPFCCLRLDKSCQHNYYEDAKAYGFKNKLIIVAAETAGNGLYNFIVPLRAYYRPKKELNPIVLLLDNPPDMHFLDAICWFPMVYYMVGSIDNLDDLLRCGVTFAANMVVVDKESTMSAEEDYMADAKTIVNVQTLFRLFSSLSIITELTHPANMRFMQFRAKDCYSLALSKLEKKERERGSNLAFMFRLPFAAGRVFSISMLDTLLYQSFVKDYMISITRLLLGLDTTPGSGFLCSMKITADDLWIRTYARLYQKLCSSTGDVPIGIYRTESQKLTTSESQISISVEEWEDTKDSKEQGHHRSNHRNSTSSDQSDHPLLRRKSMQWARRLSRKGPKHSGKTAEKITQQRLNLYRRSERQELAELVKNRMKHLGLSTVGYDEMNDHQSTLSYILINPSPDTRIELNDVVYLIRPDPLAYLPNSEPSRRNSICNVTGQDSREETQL
Description: Excised inside-out macropatch recordings of ISlo2.1 from oocytes. Type of assay: cell-based. Particulars: 10 µM in bath (cytosolic) solution.

As for `CCCCCCCC(=O)OC[C@H](COP(=O)(O)O[C@@H]1[C@H](O)[C@H](O)[C@@H](OP(=O)(O)O)[C@H](OP(=O)(O)O)[C@H]1O)OC(=O)CCCCCCC` [PI(4,5)P2 diC8, phosphatidylinositol 4,5-bisphosphate diC8], the “effect on run-down of macroscopic ISlo2.1 in excised patches” value is reported as “preventable”.
